Reference: article PMC7938888, “Antidepressant drugs act by directly binding to TRKB neurotrophin receptors” (Cell, 2021)
Values joined by “and” are separate entries in the source; they are usually repeats but may differ in a detail not shown here. Equal entries are not always repeated. “Also recorded” adds a separate entry of the source. Where two headings read alike, the source gives them in different places.

Tests used:
surface TRKB [1] = assay: Surface TRKB ELISA in MG87.TRKB cells; assay type: cell-based, mouse; conditions: cholesterol 20 μM/15 min
Description: (§1) The surface levels of TRKB were also determined by ELISA ([Zheng et al., 2008]). Briefly, the MG87.TRKB cells or primary cortical cells from rat or mouse embryos, cultivated in clear bottom 96-well plates (ViewPlate 96, Perkin Elmer), were washed with ice-cold PBS and fixed with 100μl of 4% PFA per well. After washing with PBS and blocking with PBS containing 5% nonfat dry milk and 5% BSA, the samples were incubated with primary anti-TRKB antibody (R&D Systems, #AF1494, 1:1000 in blocking buffer) or anti-GluR1 subunit of AMPA receptors (CST, #8850, 1:2000 in blocking buffer) ON at 4°C. Following washing, the samples were incubated with HRP-conjugated anti-goat or anti-rabbit IgG (1:5000 in blocking buffer) for 1h at RT. The cells were washed 4x with 200μl of PBS for 10 min each. Finally, the chemiluminescent signal generated by reaction with ECL was analyzed in a plate reader.

mice [2] = assay: BrdU incorporation (hippocampal neurogenesis); assay type: in vivo, mouse; conditions: FLX 15 mg/kg/day 21 days p.o.
Description: Animals: both males and females were used in this experiment. The Bromodeoxyuridine (BrdU) (Sigma) was administered intraperitoneally at the dose of 75 mg/kg four times every 2 hr to reach 300 mg/kg total for each animal. […] On day 21 of the drug treatment, the animals were euthanized by CO2, brains were quickly removed, followed by hippocampus dissection on ice, instantly frozen on dry ice and stored at −80°C until further use.
A semiquantitative dot-blot method was performed as previously described with minor modifications ([Wu and Castrén, 2009]). To isolate the DNA of the hippocampus samples, DNeasy® Blood and Tissue Kit (QIAGEN, Germany) was used. The extraction procedure was as per the manufacturer’s instruction. The DNA purity was assessed by the spectrophotometer NanoDrop 2000C (ThermoFisher Scientific, USA). DNA was incubated with 1 volume of 4N NaOH solution for 30 min at room temperature to render it as single stranded and immediately kept on ice to prevent reannealing. The DNA solution was neutralized by an equal volume of 1M Tris-HCl (pH 6.8). The single-stranded neutralized DNA (1ug) was dot-blotted onto a nylon transfer membrane (Schlleicher and Schuell, Keene, NH) with a dot-blot apparatus (Minifold, Schlleicher and Schuell) under vacuum and the DNA was fixed by ultraviolet cross-linker (1200 μJ × 100, Stratagene, La Jolla, CA). […]

surface TRKB [3] = assay: Surface TRKB ELISA in primary cortical neurons; assay type: cell-based, rat; conditions: primary cortical neurons
Description: as §1

[4] = test system: GluR1 subunit of AMPA receptors; assay: Surface GluR1 ELISA in cortical cells of TRKB.Y433F mice; assay type: cell-based, mouse
Description: (§2) Briefly, the MG87.TRKB cells or primary cortical cells from rat or mouse embryos, cultivated in clear bottom 96-well plates (ViewPlate 96, Perkin Elmer), were washed with ice-cold PBS and fixed with 100μl of 4% PFA per well. […] Following washing, the samples were incubated with HRP-conjugated anti-goat or anti-rabbit IgG (1:5000 in blocking buffer) for 1h at RT. The cells were washed 4x with 200μl of PBS for 10 min each. Finally, the chemiluminescent signal generated by reaction with ECL was analyzed in a plate reader.

TRKB.T1ΔEC = assay: Cell-free ligand binding assay, TRKB deletion construct; conditions: construct with TMD and short juxtamembrane sequences only
[5] = test system: GluR1 subunit of AMPA receptors; assay: Surface GluR1 ELISA in rat cortical cells; assay type: cell-based
Description: as §2

TRKB/TRKA.TM = assay: Cell-free ligand binding assay, chimeric TRKB with TMD of TRKA; conditions: biotinylated fluoxetine
mice [6] = assay: Object location memory (OLM) test; assay type: in vivo, mouse
Description: Object-location memory (OLM): this test was performed in a square arena (28cm side) with opaque walls containing cues (black stripes or spots). The adult male and female mice (18-22 weeks old) were placed for 3 consecutive days (15min per session) in the arena with two identical objects (table tennis balls glued to caps of 50ml Falcon tubes) in the same position throughout the sessions (pretest).

[7] = prefrontal cortex, individual mice; for FLX uM**: fluoxetine MW 309g/mol
TRKB.Y433F = molecular target: T1, TRKB.Y433F (Mus musculus, UniProt P15209, Y433F); assay: Cell-free ligand binding assay, TRKB.Y433F mutant; conditions: TRKB.Y433F; read-out: binding affinity of BDNF
T1 construct: wild-type GFP-tagged full length TRKB or the GFP-tagged Y433F TRKB mutant; host or cells: HEK293T
Description: The cell-free assays (binding assays) were performed in white 96-well plates, based on the protocol used for western-blotting or ELISA ([Baeza-Raja et al., 2016]; [Das et al., 2015]). The plates were precoated with anti-GFP, anti-FLAG, anti-TRK or anti-TRKB antibody (1:1000) in carbonate buffer (pH 9.8), ON at 4°C. Following blocking with 3% BSA in PBS buffer (2 h at RT), 120 ug of total protein from each sample (of lysates from HEK293T cells transfected to overexpress GFP-TRKB.wt or GFP-TRKB.Y433F) were added and incubated overnight at 4°C under agitation. […] The luminescence was determined via HRP-conjugated streptavidin (1:10000, 1h, RT) activity reaction with ECL by a plate reader. The luminescence signal from blank wells (containing all the reagents but the sample lystates, substituted by the blocking buffer) was used as background. The specific signal was then calculated by subtracting the values of blank wells from the values of the samples with matched concentration of the biotinylated ligand. For Figure 2E, the precipitated TRKB.wt or Y433F was incubated with tritiated imipramine (0-30μM) and the radioactive emission of the ligand was determined by scintillation (OptiPhase Supermix cocktail: #1200-439; MicroBeta2, Perkin-Elmer). The scintillation signal from blank wells was used as background, and the specific signal was then calculated by subtracting the values of blank wells from the values of the samples with matched concentration of the radioactive ligand.

T1 sequence (P15209 32-821 Y433F): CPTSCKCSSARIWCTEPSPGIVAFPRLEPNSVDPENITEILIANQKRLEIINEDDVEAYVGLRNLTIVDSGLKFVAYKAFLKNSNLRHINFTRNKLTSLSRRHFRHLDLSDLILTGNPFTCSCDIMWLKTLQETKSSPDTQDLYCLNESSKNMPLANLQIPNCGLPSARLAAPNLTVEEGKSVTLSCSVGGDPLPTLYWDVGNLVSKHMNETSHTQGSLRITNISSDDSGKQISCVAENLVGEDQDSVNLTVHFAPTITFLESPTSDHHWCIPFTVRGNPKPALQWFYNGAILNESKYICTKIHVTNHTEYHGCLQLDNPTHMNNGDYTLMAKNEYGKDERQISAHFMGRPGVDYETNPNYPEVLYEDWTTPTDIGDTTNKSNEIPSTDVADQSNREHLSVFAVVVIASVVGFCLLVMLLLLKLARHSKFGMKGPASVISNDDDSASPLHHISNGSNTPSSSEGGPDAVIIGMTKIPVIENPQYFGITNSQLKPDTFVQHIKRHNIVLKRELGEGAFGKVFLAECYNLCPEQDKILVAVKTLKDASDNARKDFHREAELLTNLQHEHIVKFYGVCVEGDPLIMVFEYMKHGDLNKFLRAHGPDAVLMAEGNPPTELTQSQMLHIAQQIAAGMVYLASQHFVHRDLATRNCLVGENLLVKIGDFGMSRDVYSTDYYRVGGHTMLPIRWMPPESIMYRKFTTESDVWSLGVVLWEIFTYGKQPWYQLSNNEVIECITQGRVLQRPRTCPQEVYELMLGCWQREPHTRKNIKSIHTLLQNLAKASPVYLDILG

CC(C)CCC[C@@H](C)[C@H]1CC[C@H]2[C@@H]3CC=C4C[C@@H](O)CC[C@]4(C)[C@H]3CC[C@]12C [CHOL, cholesterol]
cell surface translocation of TRKB (surface TRKB [1]): increased cell surface translocation of TRKB

CNCCC(Oc1ccc(C(F)(F)F)cc1)c1ccccc1 (stereo not drawn) [FLX, fluoxetine]
survival of newborn hippocampal neurons (mice [2]; TRKB.Y433F mice): no increase was observed | survival of newborn hippocampal neurons (mice [2]; wild-type mice): significantly increased survival of newborn hippocampal neurons | surface expression of TRKB (surface TRKB [3]): increased the surface expression of TRKB | increase in surface GluR1 in neurons from TRKB.Y433F mutant mice [4]: prevented | binding to TRKB.T1ΔEC (TRKB.T1ΔEC): robust binding | cell surface localization of GluR1 subunits of AMPA receptors [5]: increased cell surface localization of GluR1 subunits | binding to chimeric TRKB with the TMD of TRKA (TRKB/TRKA.TM): failed to bind; also recorded: very low | response in OLM test (mice [6]; BDNF haploinsufficient mice): lack of response | long-term memory in OLM test (mice [6]; TRKB.wt mice, FLX 15 mg/kg/day for 7 days): facilitated long-term memory | response in OLM test (mice [6]; animals co-treated with pravastatin): lack of response | response in OLM test (mice [6]; serotonin transporter knockout (5HTT.ko) mice): responded to FLX treatment normally | FLX ([7]; genotype het, 15mg/kg in drinking water 21 days, 15 mg/kg): 1.368 µg/mL and 0.379 µg/mL and 2.739 µg/mL | FLX ([7]; genotype het, brain density 1.045g/ml): 9.69 µg/mL and 6.28 µg/mL and 21.21 µg/mL | FLX uM** ([7]; genotype het): 31.36 µM and 20.34 µM and 68.63 µM | FLX ug/g wet tissue ([7]; genotype het): 9.273 ug/g wet tissue and 6.013 ug/g wet tissue and 20.292 ug/g wet tissue | FLX ([7]; genotype wt, 15mg/kg in drinking water 21 days, 15 mg/kg): 1.575 µg/mL and 1.642 µg/mL and 1.024 µg/mL and 1.497 µg/mL and 0.393 µg/mL | FLX ([7]; genotype wt, brain density 1.045g/ml): 4.03 µg/mL and 11.14 µg/mL and 6.93 µg/mL and 10.29 µg/mL and 9.31 µg/mL | FLX uM** ([7]; genotype wt): 13.04 µM and 36.06 µM and 22.42 µM and 33.30 µM and 30.13 µM | FLX ug/g wet tissue ([7]; genotype wt): 3.856 ug/g wet tissue and 10.662 ug/g wet tissue and 6.629 ug/g wet tissue and 9.846 ug/g wet tissue and 8.908 ug/g wet tissue

B1: BDNF: brain-derived neurotrophic factor, TRKB ligand (protein, UniProt P23560 19-247, looked up)
Neurotrophic factor BDNF …: APMKEANIRGQGGLAYPGVRTHGTLESVNGPKAGSRGLTSLADTFEHVIEELLDEDQKVRPNEENNKDADLYTSRVMLSSQVPLEPPLLFLLEEYKNYLDAANMSMRVRRHSDPARRGELSVCDSISEWVTAADKKTAVDMSGGTVTVLEKVPVSKGQLKQYFYETKCNPMGYTKEGCRGIDKRHWNSQCRTTQSYVRALTMDSKKRIGWRFIRIDTSCVCTLTIKRGR
Kd (TRKB.Y433F): 2.9 pM
